The assay concerns CD2F1 mice, L1210 leukemia ip, survival T/C. Briefly: NCI In Vivo Anticancer Drug Screen. Data for tumor model L1210 Leukemia (intraperitoneal) in CD2F1 (CDF1) mice. Particulars: endpoint: mean survival time, higher = longer survival. In outline:
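Implant tumor; dose compound or vehicle; measure endpoint in both groups; report treated divided by control.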

[1] abbreviates: dose: 100.0 mg/kg/injection, schedule: Q01DX009 (ip), vehicle: saline with Tween-80.
The mark [2] stands for this setting: dose: 100.0 mg/kg/injection, schedule: Q04DX003 (ip), vehicle: saline with Tween-80.
Setting [3] is: dose: 200.0 mg/kg/injection, schedule: Q01DX009 (ip), vehicle: saline with Tween-80.
Where [4] appears, read: dose: 200.0 mg/kg/injection, schedule: Q04DX003 (ip), vehicle: saline with Tween-80.
Where [5] appears, read: dose: 25.0 mg/kg/injection, schedule: Q01DX009 (ip), vehicle: saline with Tween-80.
Setting [6] is: dose: 50.0 mg/kg/injection, schedule: Q01DX009 (ip), vehicle: saline with Tween-80.
Where [7] appears, read: dose: 100.0 mg/kg/injection, schedule: Q01DX001 (ip), vehicle: saline with Tween-80.
Where [8] appears, read: dose: 200.0 mg/kg/injection, schedule: Q01DX001 (ip), vehicle: saline with Tween-80.
The mark [9] stands for this setting: dose: 400.0 mg/kg/injection, schedule: Q01DX001 (ip), vehicle: saline with Tween-80.
The mark [10] stands for this setting: dose: 75.0 mg/kg/injection, schedule: Q01DX001 (ip), vehicle: saline.
The mark [11] stands for this setting: dose: 25.0 mg/kg/injection, schedule: Q04DX003 (ip), vehicle: saline with Tween-80.
[12] abbreviates: dose: 50.0 mg/kg/injection, schedule: Q01DX009 (ip), vehicle: Klucel (hydroxypropylcellulose) (HPC).
The mark [13] stands for this setting: dose: 100.0 mg/kg/injection, schedule: Q01DX009 (ip), vehicle: Klucel (hydroxypropylcellulose) (HPC).
[14] abbreviates: dose: 200.0 mg/kg/injection, schedule: Q01DX009 (ip), vehicle: Klucel (hydroxypropylcellulose) (HPC).

The structures appear in SMILES notation. “And” between values parts separate entries of the source, which are not always exact repeats. Identical values can stand only once. Toxic doses and inconclusive results are not listed.

Regarding `COc1ccc(C2=NNc3n[nH]c(=S)n3N2)cc1OC`, the T/C reads like this: under setting [1], 93 % of control; under setting [2], 91 % of control; under setting [3], 93 % of control; under setting [4], 101 % of control; (dose: 400.0 mg/kg/injection, schedule: Q01DX009 (ip), vehicle: saline with Tween-80) 104 % of control; (dose: 400.0 mg/kg/injection, schedule: Q04DX003 (ip), vehicle: saline with Tween-80) 90 % of control.
`COP12(OCCO1)SC(C(F)(F)F)=C(C(F)(F)F)S2`: the T/C is, setting by setting: (dose: 12.5 mg/kg/injection, schedule: Q01DX009 (ip), vehicle: saline with Tween-80) 102 % of control and 109 % of control; under setting [5], 96 % of control and 101 % of control; under setting [6], 100 % of control.
For the compound `O=C1CC(c2ccccc2)=NO1`, the T/C runs as follows: under setting [7], 106 % of control; under setting [8], 101 % of control; under setting [9], 101 % of control.
Take `Cn1c(-c2ccccc2)cc(=O)cc1-c1ccccc1`: the T/C by setting is: under setting [6], 96 % of control; under setting [1], 93 % of control; under setting [2], 91 % of control; under setting [3], 94 % of control; under setting [4], 97 % of control.
As for `O=P(c1ccccc1)(c1ccccc1)c1ccccc1` (tested in a mixture with another compound), the T/C reads like this: (dose: 12.5 mg/kg/injection, schedule: Q01DX009 (ip), vehicle: other) 100 % of control; (dose: 25.0 mg/kg/injection, schedule: Q01DX009 (ip), vehicle: other) 100 % of control; (dose: 50.0 mg/kg/injection, schedule: Q01DX009 (ip), vehicle: other) 101 % of control; (dose: 100.0 mg/kg/injection, schedule: Q01DX009 (ip), vehicle: other) 96 % of control; (dose: 200.0 mg/kg/injection, schedule: Q01DX009 (ip), vehicle: other) 103 % of control.
For `CCN(CC)[P+](c1ccccc1O)(N(CC)CC)N(CC)CC`, the T/C (dose: 0.39 mg/kg/injection, schedule: Q01DX009 (ip), vehicle: saline) was 103 % of control; the T/C (dose: 0.78 mg/kg/injection, schedule: Q01DX009 (ip), vehicle: saline) is 104 % of control; the T/C (dose: 1.56 mg/kg/injection, schedule: Q01DX009 (ip), vehicle: saline) was 109 % of control; the T/C (dose: 6.25 mg/kg/injection, schedule: Q01DX009 (ip), vehicle: saline) was 92 % of control.
As to `CCSC1=[N+](SCC)CCCS1`, the T/C under setting [10] was 103 % of control.
`NNC(=O)c1ccc(Cl)cc1Cl`: the T/C runs as follows: (dose: 6.25 mg/kg/injection, schedule: Q04DX003 (ip), vehicle: saline with Tween-80) 97 % of control; (dose: 12.5 mg/kg/injection, schedule: Q04DX003 (ip), vehicle: saline with Tween-80) 101 % of control; under setting [11], 103 % of control.
As to `O=C1NC(=O)C2(CCN(Cc3ccccc3)CC2)N1`, the T/C is 104 % of control under setting [7], 101 % of control under setting [8] and 101 % of control under setting [9].
On to `Cc1cc2nc3c(=O)[nH]c(=O)nc-3n(CC(O)C(O)C(O)C(O)CO)c2cc1C` (centres undefined), for which the T/C runs as follows: (dose: 25.0 mg/kg/injection, schedule: Q01DX009 (ip), vehicle: saline) 101 % of control; (dose: 25.0 mg/kg/injection, schedule: Q01DX009 (ip), vehicle: suspension in saline) 96 % of control; (dose: 50.0 mg/kg/injection, schedule: Q01DX009 (ip), vehicle: saline) 93 % of control; (dose: 50.0 mg/kg/injection, schedule: Q01DX009 (ip), vehicle: suspension in saline) 104 % of control; (dose: 100.0 mg/kg/injection, schedule: Q01DX009 (ip), vehicle: saline) 95 % of control; (dose: 100.0 mg/kg/injection, schedule: Q01DX009 (ip), vehicle: suspension in saline) 102 % of control. For the same compound, the T/C (dose: 200.0 mg/kg/injection, schedule: Q01DX009 (ip), vehicle: saline) is 98 % of control; the T/C (dose: 200.0 mg/kg/injection, schedule: Q01DX009 (ip), vehicle: suspension in saline) is 98 % of control; the T/C (dose: 400.0 mg/kg/injection, schedule: Q01DX009 (ip), vehicle: saline) is 103 % of control; the T/C (dose: 400.0 mg/kg/injection, schedule: Q01DX009 (ip), vehicle: suspension in saline) is 98 % of control; the T/C (dose: 800.0 mg/kg/injection, schedule: Q01DX009 (ip), vehicle: saline) was 95 % of control.
In the case of `CCOC(=O)C1=C2CC(C)(C)CCC2(C)CCC1=O` (centres undefined), the T/C was 100 % of control (dose: 100.0 mg/kg/injection, schedule: Q04DX002 (ip), vehicle: saline with Tween-80); 100 % of control (dose: 200.0 mg/kg/injection, schedule: Q04DX002 (ip), vehicle: saline with Tween-80); 88 % of control (dose: 400.0 mg/kg/injection, schedule: Q04DX002 (ip), vehicle: saline with Tween-80).
Take `CCCCCCCC/C=C\CCCCCCCCNC(C)=O`: the T/C reads like this: under setting [1], 89 % of control; under setting [3], 89 % of control.
As for `NC1=NC(c2ccc(Cl)cc2)N(c2ccc(S(N)(=O)=O)cc2)C(N)=N1` (centres undefined), the T/C is, setting by setting: under setting [5], 100 % of control; under setting [6], 100 % of control; under setting [1], 96 % of control.
In the case of `CCC(=O)OCC(=O)[C@]1(O)Cc2c(O)c3c(c(O)c2[C@@H](OC2CC(N)C(O)C(C)O2)C1)C(=O)c1c(OC)cccc1C3=O` (some centres undefined), the T/C runs as follows: (dose: 0.25 mg/kg/injection, schedule: Q01DX009 (ip), vehicle: saline) 112 % of control; (dose: 0.5 mg/kg/injection, schedule: Q01DX009 (ip), vehicle: saline) 122 % of control; (dose: 1.5 mg/kg/injection, schedule: Q04DX003 (ip), vehicle: saline sonified) 166 % of control; (dose: 2.0 mg/kg/injection, schedule: Q01DX009 (ip), vehicle: saline) 155 % of control; (dose: 2.0 mg/kg/injection, schedule: Q04DX003 (ip), vehicle: saline with Tween-80) 118 % of control; (dose: 8.0 mg/kg/injection, schedule: Q01DX009 (ip), vehicle: saline) 89 % of control.
For the compound `O=C(/C=C/c1ccc(Cl)cc1)c1ccccc1`, the T/C under setting [12] was 94 % of control, the T/C under setting [13] was 102 % of control and the T/C under setting [14] was 105 % of control.
Consider `NC(=S)Nc1ccccn1`, for which the T/C was 100 % of control under setting [11]; 102 % of control (dose: 50.0 mg/kg/injection, schedule: Q04DX003 (ip), vehicle: saline with Tween-80); 93 % of control under setting [2].
For `Nc1cc(Cl)c([N+](=O)[O-])cc1O`, the T/C runs as follows: under setting [12], 91 % of control; under setting [13], 94 % of control; under setting [14], 94 % of control.
Take `CN(Cc1ccc[n+](Cc2ccc(S(=O)(=O)F)cc2)c1)C(=O)COc1ccc(Cl)c(Cl)c1`: the T/C by setting is: under setting [2], 98 % of control; under setting [4], 96 % of control.
For the compound `CC1[N-]C(/C=N/O)NC(C)N1.CC1[N-]C(/C=N/O)NC(C)N1.[Br][Ni+2][Br]` (centres undefined), the T/C is 105 % of control (dose: 5.0 mg/kg/injection, schedule: Q01DX001 (ip), vehicle: saline); 103 % of control (dose: 10.0 mg/kg/injection, schedule: Q01DX001 (ip), vehicle: saline); 105 % of control (dose: 20.0 mg/kg/injection, schedule: Q01DX001 (ip), vehicle: saline); 108 % of control (dose: 40.0 mg/kg/injection, schedule: Q01DX001 (ip), vehicle: saline); 106 % of control under setting [10]; 105 % of control (dose: 80.0 mg/kg/injection, schedule: Q01DX001 (ip), vehicle: saline).
Turning to `COc1ccc(-c2nc(C)cc3cc(OC)c(OC)cc23)cc1OC`, the T/C runs as follows: (dose: 12.5 mg/kg/injection, schedule: Q01DX009 (ip), vehicle: water) 94 % of control; (dose: 25.0 mg/kg/injection, schedule: Q01DX009 (ip), vehicle: water) 94 % of control; (dose: 50.0 mg/kg/injection, schedule: Q01DX009 (ip), vehicle: water) 91 % of control; (dose: 100.0 mg/kg/injection, schedule: Q01DX009 (ip), vehicle: water) 89 % of control.

(Values after PubChem BioAssay AID256 (DTP/NCI, 2004).)
